Assay results: PubChem BioAssay (NCI)
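Results reflect a 48-hour exposure of cells in 96-well plates to compound at five concentrations. GI50: concentration for 50% inhibition of growth. Definition used: TGI = concentration required for complete inhibition of growth.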

How the values were obtained:
Assay in all cases: NCI anticancer screen, dose series, 48 h
MDA-N = tested on: MDA-N
XF 498 CNS = tested on: XF 498 CNS
LXFL 529 NSCLC = tested on: LXFL 529 NSCLC
DMS 114 small cell lung = tested on: DMS 114 small cell lung
RXF-631 renal = tested on: RXF-631 renal
KM20L2 colon = tested on: KM20L2 colon
DLD-1 colon = tested on: DLD-1 colon
HOP-18 NSCLC = tested on: HOP-18 NSCLC

Structure (SMILES) | TGI (MDA-N) | GI50 (MDA-N) | TGI (XF 498 CNS) [µM] | TGI (LXFL 529 NSCLC) [µM] | TGI (DMS 114 small cell lung) [µM] | TGI (RXF-631 renal) [µM] | TGI (KM20L2 colon) [µM] | TGI (DLD-1 colon) [µM] | TGI (HOP-18 NSCLC) [µM] | GI50 (LXFL 529 NSCLC) [µM] | GI50 (DLD-1 colon) [µM] | GI50 (KM20L2 colon) [µM]
O=C(O)C1C(C(=O)O)C23CC2(C(=O)O)C2(C(=O)O)CCC3=C3CCCC312 (stereo not drawn) | 89.2 µM |  |  |  |  |  |  |  |  |  |  | 
COc1ccc(C(=O)/C=C/c2ccc3c(c2)OCO3)c(OCc2ccccc2)c1 | > 100 µM |  |  |  |  |  |  |  |  |  |  | 
CNC(=O)CC1NC(=O)c2csc(n2)-c2ccc(-c3nc(C4=NC(C(=O)N5CCCC5C(N)=O)CO4)cs3)nc2-c2csc(n2)-c2csc(n2)C(C(C)C)NC(=O)CNC(=O)c2csc(n2)C(C(C)C)NC(=O)c2nc1sc2C (stereo not drawn) |  | < 0.001 µM |  |  |  |  |  |  |  |  |  | 
CCN(CC)CCn1c2ccccc2c(=O)c2c(O)ccc(O)c21 | 34.4 µM |  | 44.2 | 41.7 | 41 | > 66.8 | > 100 |  |  |  |  | 
COC(=O)NN=C1C(C)(C)C(=O)C1(C)C |  |  | > 100 | > 100 |  | > 100 | > 100 | > 100 |  |  |  | 
Cc1cc(Cc2cc(C)cc(C(C)(C)C)c2O)c(O)c(Cc2cc(C)cc(C(C)(C)C)c2O)c1 | 11.9 µM |  |  |  |  |  |  |  |  |  |  | 
CN1CC[C@]2(C)c3cc(O)ccc3CC3CCCC1C32C (stereo partly drawn) |  |  | > 100 | > 100 | > 100 | > 100 | > 100 | > 100 | > 100 |  |  | 
O=C(O)CCC(NC(=O)c1ccccc1)C(=O)O (stereo not drawn) |  |  | > 100 | > 100 | > 100 | > 100 | > 100 | > 100 | > 100 |  |  | 
Cn1ccc2c(C(=O)c3ccccc3)cccc2c1=O |  |  | > 100 | > 100 | > 100 |  |  | > 100 |  |  |  | 
CCOC(=O)/C(=C\c1ccc(C#N)cc1)C(C)=O | > 100 µM |  |  |  |  |  |  |  |  |  |  | 
O=C1CCCC(=O)N1CCc1c[nH]c2ccccc12 |  |  | > 100 | > 100 | > 100 | > 100 | > 100 | > 100 |  |  |  | 
NC1=C(c2nc(-c3ccccc3)cs2)C(c2ccc(Br)cc2)c2c(c3ccccc3oc2=O)O1 (stereo not drawn) | > 150 µg/mL | 63.7 µg/mL |  |  |  |  |  |  |  |  |  | 
COc1cc(C(O)C(=O)c2nc3ccc([N+](=O)[O-])cc3[nH]c2=O)ccc1O (stereo not drawn) |  |  | > 100 | > 100 | > 100 |  | > 100 | > 100 |  |  |  | 
C[C@]12CCC(=O)C(O)=C1CC[C@@H]1C2CC[C@]2(C)Nc3c(cnn3-c3ccccc3)CC12 (stereo partly drawn) |  |  | > 100 | > 100 |  | > 100 | > 100 | > 100 |  |  |  | 
Fc1ccccc1C1SCc2nc3ccccc3n21 (stereo not drawn) |  |  |  | > 100 | > 100 | > 100 |  | > 100 |  |  |  | 
CC1=NN(C(=O)CC(=O)NC(=O)CC(=O)Nc2ccccc2F)C(=O)C1N=Nc1ccc([N+](=O)[O-])cc1 (stereo not drawn) |  |  | 70.9 | > 100 | 41 | > 100 | > 100 | > 100 | > 100 |  |  | 
O=C1C2C=CC(C2)C(c2ccc(O)cc2)N1O (stereo not drawn) |  |  | > 100 | > 100 |  |  | > 100 | > 100 |  |  |  | 
NCCN.NCCN.O=C([O-])CCl.O=C([O-])CCl.[Co+3].[O-][Cl+3]([O-])([O-])[O-] |  |  |  | > 100 |  |  | > 100 | > 100 |  | > 100 | > 100 | > 100
O=c1nc(NC(c2ccccc2)(c2ccccc2)c2ccccc2)ccn1CCNCCn1ccc(NC(c2ccccc2)(c2ccccc2)c2ccccc2)nc1=O |  |  | 31.9 | 26.2 | 13.5 |  | 30.1 | > 100 | 43.8 |  |  | 
Cc1ccc([N+](=O)[O-])cc1NC(=O)c1cccc([N+](=O)[O-])c1O |  |  | 63.2 | 78.1 | 43.2 |  | > 100 | > 100 |  |  |  | 
COC(=O)NC12CC3CC(CC(F)(C3)C1)C2 |  |  | > 100 |  |  | > 100 | > 100 | > 100 |  |  |  | 

Structure (SMILES) | TGI (MDA-N) | GI50 (MDA-N) | TGI (XF 498 CNS) [µM] | TGI (LXFL 529 NSCLC) [µM] | TGI (DMS 114 small cell lung) [µM] | TGI (RXF-631 renal) [µM] | TGI (KM20L2 colon) [µM] | TGI (DLD-1 colon) [µM] | TGI (HOP-18 NSCLC) [µM] | GI50 (LXFL 529 NSCLC) [µM] | GI50 (DLD-1 colon) [µM] | GI50 (KM20L2 colon) [µM]
CN(C)C=[N+]=[N-] |  |  | > 100 | > 100 | > 100 |  | > 100 | > 100 | > 100 |  |  | 
CC(=O)OCC(=O)[C@@]12OC(C)(C)O[C@@H]1C[C@H]1[C@@H]3CC=C4C[C@@H](O)CC[C@]4(C)[C@H]3CC[C@@]12C | > 100 µM |  |  |  |  |  |  |  |  |  |  | 
O=C(c1ccccc1)[C@@H]1C[C@H](Sc2ccccc2)c2cc(Cl)ccc2N1 |  |  | 46.9 | 77.5 | 82.6 | 83.1 | 70.3 | > 100 | > 100 |  |  | 
COc1cc2c(cc1OC)[C@H]1C(COC(=O)c3ccccc3)CSC(=Nc3ccccc3)N1CC2 (stereo partly drawn) |  |  | > 100 | > 100 | > 100 |  | > 100 | > 100 | > 100 |  |  | 
c1ccc2cc3[s+]snc3cc2c1 |  |  | > 100 | > 100 |  | > 100 | > 100 | > 100 | > 100 |  |  | 
O=C1C2C(c3ccccc3)NC(c3ccccc3)C1C(c1ccccc1)NC2c1ccccc1 (stereo not drawn) | > 100 µM |  |  |  |  |  |  |  |  |  |  | 
Cc1[nH]c(=O)n2c(C)nnc2c1C(=O)Nc1cc(Cl)cc(Cl)c1 |  |  |  | > 100 |  |  |  | > 100 |  |  |  | 
C=C1C(=O)O[C@H]2[C@H](OC(C)=O)[C@@H](C)CCC/C(C)=C/CC[C@@]3(C)O[C@@H]3C[C@@H]12 | 10.6 µM |  |  |  |  |  |  |  |  |  |  | 
C/C=C1/CCC2c3[nH]c4ccccc4c3CCN2C1 (stereo not drawn) |  |  | > 100 | > 100 | > 100 |  | > 100 | > 100 |  |  |  | 
O=C(NCCCCCCNC(=O)OCCSCCn1cc(C(=O)NC(=O)OCc2ccccc2)c(=O)[nH]c1=O)OCCSCCn1cc(C(=O)NC(=O)OCc2ccccc2)c(=O)[nH]c1=O |  |  | > 100 | > 100 | > 100 | > 100 | > 100 | > 100 |  |  |  | 
COc1ccc(CC(=O)NCCc2ccc(OC)c(OC)c2)cc1Br |  |  | > 100 | > 100 | > 100 |  | > 100 | > 100 |  |  |  | 
C=C1C(=O)OC2C=C(CCC(C)=O)C(C)C(OC(C)=O)CC12 (stereo not drawn) |  |  | 26.1 | 1.67 |  |  | 16.4 |  | 24.1 |  |  | 
Cc1ccc(NC(=O)C(=O)CC(=O)c2c(C)n([O-])c3ccccc3[n+]2=O)cc1 |  |  |  | > 100 | 38.5 | > 100 | 71.8 |  | > 100 |  |  | 
CC(C)(CN1CCCCC1)C(=O)/C=C/c1ccc(Cl)cc1 |  |  |  | 9.75 | 15.4 | 29.9 | 7.48 | 22.9 | 23.1 |  |  | 
CN(C)CCCN1c2ccccc2C(C)(C)c2ccccc21 | 27.6 µM |  |  |  |  |  |  |  |  |  |  | 
CCOC(=O)/C(=C\c1cccs1)P(=O)(OCC)OCC |  |  |  | 41.4 | 51.7 | > 100 | 49.7 | 60.6 | > 100 |  |  | 
Cc1cc(NS(=O)(=O)c2ccc(NC(=O)c3ccc(Cl)c4c(Nc5ccc(S(=O)(=O)N=C(N)N)cc5)c5ccccc5nc34)cc2)no1 |  |  | 98.8 | > 100 | > 100 |  | > 100 | > 100 |  |  |  | 
C[N+]1(C)C/C(=C\c2ccccc2)C(=O)/C(=C/c2ccccc2)C1 |  |  | > 100 | > 100 | > 100 | > 100 | > 100 | > 100 | > 100 |  |  | 
CN1C(=O)C(CC(=O)O)NC1=S (stereo not drawn) | > 100 µM |  |  |  |  |  |  |  |  |  |  | 
CCCC/C=C1\CCC(C)(CN(C)C)C1=O (stereo not drawn) |  |  |  | > 100 | > 100 |  | > 100 |  | > 100 |  |  | 
COc1ccccc1C1c2cc3c(cc2OC(O)(CO)C1C(=O)O)OCO3 (stereo not drawn) (tested in a mixture with another compound) |  |  |  | > 100 | > 100 |  | > 100 | > 100 | > 100 |  |  | 
